Results from patent publication US20230068020A1, “MACROLIDE COMPOUND AND ITS USE OF TREATMENT CHRONIC RESPIRATORY DISEASE” (priority 2020, published 2023).

What was measured:
Type in all cases: cell-based
[1] = tested on: Acinetobacter baumanii ATCC 17978; assay: Antibacterial activity, agar dilution MIC; conditions: Acinetobacter baumannii, ATCC17978, 20-24 hrs incubation, read-out: minimum inhibitory concentration MIC
Procedure: (§1) The antibacterial activity of Erythromycin and compounds of examples were evaluated by the agar dilution method, following the guidelines of the CLSI. […] Briefly, bacteria were grown overnight in adapted media (MHIIA with 5% of sheep blood for Streptococcus pneumoniae and Haemophilus influenzae, and MHIIA for the other bacteria strains) at 35° C., 5% CO2.
(§2) Cultures were centrifuged at 3000×g for 15 min. Pellets were diluted with 5 mls cold PBS and the OD600nm was adjusted to 10^8 CFU.mL^−1 with a spectrometer. Bacteria were then added to 96-well test plates. Compounds were diluted in DMSO in a 2 fold steps from 20 mg/ml in DMSO in 96 well plated and transferred to the test plate. During the incubation, the plate was maintained at 35° C., 5% CO2.
(§3) The MICs for Erythromycin and compounds of examples were determined after 20-24 hrs incubation.

[2] = tested on: Acinetobacter baumannii ATCC-BAA-1605; assay: Antibacterial activity, agar dilution MIC; conditions: ATCCBAA1605, 20-24 hrs incubation, read-out: minimum inhibitory concentration MIC
Procedure: as §1, §2, §3

[3] = tested on: Enterococcus faecalis ATCC 29212; assay: Antibacterial activity, agar dilution MIC; conditions: ATCC29212, 20-24 hrs incubation, read-out: minimum inhibitory concentration MIC
Procedure: as §1, §2, §3

[4] = tested on: Haemophilus influenzae ATCC 49247; assay: Antibacterial activity, agar dilution MIC; conditions: ATCC49247, 20-24 hrs incubation, read-out: minimum inhibitory concentration MIC
Procedure: as §1, §2, §3

[5] = tested on: Moraxella catarrhalis ATCC 43617; assay: Antibacterial activity, agar dilution MIC; conditions: ATCC43617, 20-24 hrs incubation, read-out: minimum inhibitory concentration MIC
Procedure: as §1, §2, §3

[6] = tested on: Staphylococcus aureus ATCC 29213; assay: Antibacterial activity, agar dilution MIC; conditions: ATCC29213, 20-24 hrs incubation, read-out: minimum inhibitory concentration MIC
Procedure: as §1, §2, §3

[7] = tested on: Staphylococcus aureus NRS 384; assay: Antibacterial activity, agar dilution MIC; conditions: NRS384, 20-24 hrs incubation, read-out: minimum inhibitory concentration MIC
Procedure: as §1, §2, §3

[8] = tested on: Streptococcus pneumoniae ATCC 49619; assay: Antibacterial activity, agar dilution MIC; conditions: ATCC49619, 20-24 hrs incubation, read-out: minimum inhibitory concentration MIC
Procedure: as §1, §2, §3

[9] = tested on: Streptococcus pneumoniae ATCC 6301; assay: Antibacterial activity, agar dilution MIC; conditions: ATCC6301, 20-24 hrs incubation, read-out: minimum inhibitory concentration MIC
Procedure: as §1, §2, §3

[10] = tested on: Streptococcus pyogenes ATCC BAA-572; assay: Antibacterial activity, agar dilution MIC; conditions: ATCCBAA572, 20-24 hrs incubation, read-out: minimum inhibitory concentration MIC
Procedure: as §1, §2, §3

THP-1 cell [11] = assay: Differentiation of monocyte to macrophage in THP-1 cell line; conditions: Homo sapiens; for EC50: THP-1 differentiate to macrophage, PMA, 96 hrs incubation; for Emax: ratio of best effect of compound to that of erythromycin 100 uM, THP-1 differentiation, read-out: Maximal activation level
Procedure: The THP-1 cell line was purchased from ATCC (American Type Culture Collection, Manassas, Va.). Cells were maintained in growth medium (RPMI-1640) with supplemented with 10% heat inactivated bovine serum, 100× Glutamax medium and 0.05 mM β-Mercaptoethanol at 37° C. under 5% CO2. Compounds were dissolved in 0.1% DMSO. Erythromycin was used as a positive control.
For the assessment of the effect of compounds of the present invention on differentiation of monocyte to macrophage in THP-1 cell line, cells were collected and centrifuged at 900 rpm for 4 minutes. The cell density was adjusted to 2.5×10^5/mL. cell suspension of 400 μL was added to each well of 48-well plate following the plate layout. PMA 1 mg, a compound can induce monocyte differentiation, was dissolved in 10 mL DMSO to form 100 μg/mL solution and aliquote it into 1 mL per vial. 1 mL solution can be further aliquoted into 10 μL per vial and stored the aliquots at −20° C. Make 10-fold dilution of PMA with DMSO and then 500-fold dilution with complete medium. 50 μL solution were then added to each well of 48-well plate following the plate layout. Erythromycin and compounds of examples at stock concentration of 10 mM was serially diluted at 10-fold in DMSO. 50 μL solution was added to each well of 48-well plate following the plate layout. After 96 hrs incubation at 37° C., 5% CO2, the plate was washed with DPBS for three times to remove non-adherent cells for three times. Complete medium 180 μL and alarmar blue 20 μL was added to each well. The fluorescent intensity was read at excitation 530 nm and emission 590 nm using PerkinElmer Victor3 after 3 hours plate incubation.
The differentiation activity of compounds of Examples is compared to that of 100 μM erythromycin and the results are shown in FIG. 1 and Table 3.

THP-1 cell [12] = assay: Cell viability (LD50) in THP-1 differentiation test; conditions: human
Procedure: The medium lethal dose (LD50) is the dosage of a compound that reduces the cell viability by 50%, and is determined using non-linear logistic regression.

[13] = tested on: IL-8 expression in BEAS-2B cell; assay: LPS induced IL-8 release by BEAS-2B (ELISA); conditions: for Maximum Inhibition: IL-8 expression in BEAS-2B cells, LPS; for IC10: concentration inhibiting IL-8 production on BEAS-2B by 10%, LPS 20 μg/mL
Procedure: The inhibitory effect of compounds of Examples on the IL-8 expression in BEAS-2B cell was tested using the following method. BEAS-2B was purchased from ATCC (American Type Culture Collection, Manassas, Va.). Cells were maintained in growth medium (LHC-9) and cultured at 37° C. under 5% CO2. Compounds were dissolved in 0.1% DMSO. Erythromycin was used as a positive control.
For the assessment of the effect of compounds of Examples on IL-8 expression inhibition in BEAS-2B cell line, cells were plated in 24 well plate at a density of 100,000/mL, in a final volume of 1 mL of assay medium. Cells were incubated at 37° C., 5% CO2 for 1 day. After the incubation, compounds were added at day 2 and LPS was added at day 3. A compound source plate was prepared by triplicate five-point 10-fold or 2-fold serial dilutions in DMSO, beginning at 1 mM (final top concentration of compounds of Examples in the assay was 100 μM and the DMSO was 0.1%). The positive control consisted of cells treated with 100 μM erythromycin and negative control was consisted of 0.1% DMSO treated cells. LPS stock solution at 5 mg/mL was made by dissolving 10 mg of LPS powder into 2 mL of ddH2O and aliquoted to 100 μL per vial. Final concentration of LPS in the assay was […] by making 125-fold dilution of stock solution with medium.
Specific immunoreactivity for IL-8 in culture supernatants were measured by a commercially available ELISA kits (R&D Systems, Inc., Minneapolis, Minn.). Each sample was assayed in duplicates as recommended by the manufacture. The concentration of compounds of Examples inhibiting IL-8 production on BEAS-2B by 10% was estimated from a 4-parametric of the normalized dose response curve. (IC10)

BEAS-2B cell = assay: Cell viability (LD10) in BEAS-2B IL-8 test; conditions: BEAS-2B cell viability
From the text: The lethal dose (LD10) is the dosage of a compound that reduces the cell viability by […], and is estimated from non-linear logistic regression.

SMILES	MIC [1] [µg/mL]	MIC [2] [µg/mL]	MIC [3] [µg/mL]	MIC [4] [µg/mL]	MIC [5] [µg/mL]	MIC [6] [µg/mL]	MIC [7] [µg/mL]	MIC [8] [µg/mL]	MIC [9] [µg/mL]	MIC [10] [µg/mL]	EC50 (THP-1 cell [11]) [nM]	Emax (THP-1 cell [11]) [%]	LD50 (THP-1 cell [12]) [µM]	Maximum Inhibition [13] [%]	IL-8 inhibitory activity compared with erythromycin ([13]; at 100 μM concentration, BEAS-2B)	IC10 [13] [nM]	LD10 (BEAS-2B cell) [µM]
CC[C@H]1OC(=O)[C@H](C)[C@@H](OC2CC(C)(OC)C(O)C(C)O2)[C@H](C)[C@@H](OC2CC(N(C)C(C)=O)CC(C)O2)C(C)(O)C[C@@H](C)C(=O)[C@H](C)[C@@H](O)[C@]1(C)O (stereo in doubt) [LY101-22, N-((2S,4S,6R)-2-(((3R,4S,5S,6R,7R,9R,11R,12R,13S,14R)-14-ethyl-7,12,13-trihydroxy-4-(((2R,4R,5S,6S)-5-hydroxy-4-methoxy-4,6-dimethyltetrahydro-2H-pyran-2-yl)oxy)-3,5,7,9,11,13-hexamethyl-2,10-dioxooxacyclotetradecan-6-yl)oxy)-6-methyltetrahydro-2H-pyran-4-yl)-N-methylacetamide]	> 128	> 128	> 128	> 128	> 128	> 128	> 128	> 128	> 128	> 128	12100 ± 2700	790 ± 50	125 ± 7.1	33	more potent inhibitory activity than erythromycin	10000	100
CC[C@H]1OC(=O)[C@H](C)[C@@H](O[C@H]2C[C@@](C)(OC)[C@@H](O)[C@H](C)O2)[C@H](C)[C@@H](O[C@H]2C[C@@H](NC)C[C@@H](C)O2)[C@@](C)(O)C[C@@H](C)C(=O)[C@H](C)[C@@H](O)[C@]1(C)O [LY101-25, (3R,4S,5S,6R,9R,11R,12R,13S,14R)-14-ethyl-7,12,13-trihydroxy-4-(((2R,4R,5S,6S)-5-hydroxy-4-methoxy-4,6-dimethyltetrahydro-2H-pyran-2-yl)oxy)-3,5,7,9,11,13-hexamethyl-6-(((2S,4S,6R)-6-methyl-4-(methylamino)tetrahydro-2H-pyran-2-yl)oxy)oxacyclotetradecane-2,10-dione]	> 128	> 128	> 128	> 128	> 128	> 128	> 128	> 128	> 128	> 128	1000 ± 300	540 ± 110	21.1 ± 5.3	53	–	1000	15
CC[C@H]1OC(=O)[C@H](C)[C@@H](OC2CC(C)(OC)C(O)C(C)O2)[C@H](C)[C@@H](OC2CC(N(C)C)CC(C)O2)[C@@](C)(O)C[C@@H](C)[C@H](O)[C@H](C)[C@@H](O)[C@]1(C)O (stereo partly shown) [LY101-45]	> 128	> 128	> 128	> 128	> 128	> 128	> 128	> 128	> 128	> 128	1500 ± 700	530 ± 60	24.2 ± 5.1	40	–	1000	15
